Experimental data as given in patent publication US11712434B2, “Compound having anti-cancer effect, and preparation method therefor and use thereof” (3D MEDICINES (BEIJING) CO., LTD., priority 2016, dated 2023).

Tests used:
Assay type in all cases: cell-based
[1] = tested on: AN3CA; assay: Cell proliferation assay (Alamar Blue); details: AN3CA tumor cell line; 6 days culture
Method in brief: (§1)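 Seed 500~1×10^4 cells/well; incubate 4 h, 37 °C, 5% CO2. Add compound, 9 conc., 3.16× dilutions, top 100 or 30 μM, n=2. Culture 6 d. AlamarBlue 1-4 h, read Ex560/Em590. IC50 via 4-parameter regression.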

[2] = tested on: Alexander cells; assay: Cell proliferation assay (Alamar Blue); details: Alexander cells liver cancer cell line; 6 days culture
Method in brief: as §1

[3] = tested on: CCRF-CEM; assay: Cell proliferation assay (Alamar Blue); details: CCRF-CEM tumor cell line; 6 days culture
Method in brief: as §1

[4] = tested on: DLD1; assay: Cell proliferation assay (Alamar Blue); details: DLD1 tumor cell line; 6 days culture
Method in brief: as §1

[5] = tested on: DU145; assay: Cell proliferation assay (Alamar Blue); details: DU145 tumor cell line; 6 days culture
Method in brief: as §1

[6] = tested on: HCCLM3; assay: Cell proliferation assay (Alamar Blue); details: HCCLM3 tumor cell line; 6 days culture
Method in brief: as §1

[7] = tested on: HEPG2; assay: Cell proliferation assay (Alamar Blue); details: HEPG2 liver cancer cell line; 6 days culture
Method in brief: as §1

[8] = tested on: HLE; assay: Cell proliferation assay (Alamar Blue); details: HLE liver cancer cell line; 6 days culture
Method in brief: as §1

[9] = tested on: HT55; assay: Cell proliferation assay (Alamar Blue); details: HT55 tumor cell line; 6 days culture
Method in brief: as §1

[10] = tested on: HUH1; assay: Cell proliferation assay (Alamar Blue); details: HUH1 liver cancer cell line; 6 days culture
Method in brief: as §1

[11] = tested on: HUH7; assay: Cell proliferation assay (Alamar Blue); details: HUH7 liver cancer cell line; 6 days culture
Method in brief: as §1

[12] = tested on: Hep3B2.1-7; assay: Cell proliferation assay (Alamar Blue); details: Hep3B2.1-7 liver cancer cell line; 6 days culture
Method in brief: as §1

[13] = tested on: HuTu80; assay: Cell proliferation assay (Alamar Blue); details: HuTu80 tumor cell line; 6 days culture
Method in brief: as §1

[14] = tested on: JHH7; assay: Cell proliferation assay (Alamar Blue); details: JHH7 liver cancer cell line; 6 days culture
Method in brief: as §1

[15] = tested on: K562; assay: Cell proliferation assay (Alamar Blue); details: K562 tumor cell line; 6 days culture
Method in brief: as §1

[16] = tested on: KASUMI-1; assay: Cell proliferation assay (Alamar Blue); details: KASUMI-1 (leukemia cells); 6 days culture
Method in brief: as §1

[17] = tested on: LC-2-ad; assay: Cell proliferation assay (Alamar Blue); details: LC-2-ad tumor cell line; 6 days culture
Method in brief: as §1

[18] = tested on: MDA-MB-231; assay: Cell proliferation assay (Alamar Blue); details: MDA-MB-231 tumor cell line; 6 days culture
Method in brief: as §1

[19] = tested on: MFM-223; assay: Cell proliferation assay (Alamar Blue); details: MFM-223 tumor cell line; 6 days culture
Method in brief: as §1

[20] = tested on: NCI-H1648; assay: Cell proliferation assay (Alamar Blue); details: NCI-H1648 tumor cell line; 6 days culture
Method in brief: as §1

[21] = tested on: NCI-H2170; assay: Cell proliferation assay (Alamar Blue); details: NCI-H2170 tumor cell line; 6 days culture
Method in brief: as §1

[22] = tested on: NCI-H526; assay: Cell proliferation assay (Alamar Blue); details: NCI-H526 tumor cell line; 6 days culture
Method in brief: as §1

[23] = tested on: NCI-H661; assay: Cell proliferation assay (Alamar Blue); details: NCI-H661 tumor cell line; 6 days culture
Method in brief: as §1

[24] = tested on: SNU739; assay: Cell proliferation assay (Alamar Blue); details: SNU739 liver cancer cell line; 6 days culture
Method in brief: as §1

[25] = tested on: SNU886; assay: Cell proliferation assay (Alamar Blue); details: SNU886 liver cancer cell line; 6 days culture
Method in brief: as §1

[26] = tested on: SW620; assay: Cell proliferation assay (Alamar Blue); details: SW620 tumor cell line; 6 days culture
Method in brief: as §1

[27] = tested on: T.T; assay: Cell proliferation assay (Alamar Blue); details: T.T tumor cell line; 6 days culture
Method in brief: as §1

[28] = tested on: 26 liver cancer cell lines; assay: Cell proliferation assay (Alamar Blue), liver cancer panel summary; details: almost all liver cancer cells
Procedure: 1. Instruments and Materials • Thermo 311 CO2 incubator; Haier biosafety cabinet; Molecular Devices microplate reader; Xiangyi brand L530 desktop low speed centrifuge; Olympus IX51 inverted fluorescence microscope, DMEM, RPMI 1640, MEM, DMEM/F12 1:1 medium, Fetal bovine serum, 0.25% trypsin solution, phosphate buffer (Thermo Fisher Shanghai Co., Ltd.); sigma dimethyl sulfoxide (DMSO), resazurin; 54 commercial tumor cell lines (including 26 liver cancer cell lines). Experimental drugs: compounds 1-12 and active drug Linifanib; chemotherapeutic drug Doxorubicin (HY-15142; Shanghai Qianyuan Biomedical Technology Co., Ltd.).
2. […] The proportion and quantity of passage were determined by experimental needs. The ratio of subculture of this cell line was generally 1:2^˜1:3. • 2.2 Inhibition Effect on the Proliferation of Different Tumor Cell Lines • Cell test: 54 cell lines in logarithmic growth phase were inoculated in 96-well culture plates at 500^˜1×10^4/well (the optimal seeding density of each cell line was determined in pre-experiment), After incubating at 37° C. for 4 h in a 5% CO2 humidification incubator, added 10 μL of compounds 1-12 or Linifanib to each well, and tested 9 drug concentration gradients for each compound (diluted from the highest concentration of the test by 3.16 times). […]

Question: For `Cc1ccc(F)c(NC(=O)Nc2ccc(-c3cccc4[nH]nc(NC(=O)CCCCCCCCCCCNC(=O)C[C@H](N)C(=O)O)c34)cc2)c1` [Compound 12], which IC50 [1] is on record?
Answer: 3.84 µM

Question: And the IC50 [2]?
Answer: 77.1 µM

Question: And the IC50 [3]?
Answer: > 100 µM

Question: What about the IC50 [4] of the same molecule?
Answer: > 100 µM

Question: And the IC50 [5]?
Answer: 83 µM

Question: And the IC50 [6]?
Answer: > 100 µM

Question: What about the IC50 [7] of the same molecule?
Answer: 9.27 µM

Question: And the IC50 [8]?
Answer: > 100 µM

Question: What about the IC50 [9] of the same molecule?
Answer: > 100 µM

Question: What about the IC50 [10] of the same molecule?
Answer: > 100 µM

Question: And the IC50 [11]?
Answer: 40.6 µM

Question: What about the IC50 [12] of the same molecule?
Answer: 79.6 µM

Question: And the IC50 [13]?
Answer: 44.4 µM

Question: What about the IC50 [14] of the same molecule?
Answer: 67.2 µM

Question: And the IC50 [15]?
Answer: > 100 µM

Question: And the IC50 [16]?
Answer: 490 nM

Question: And the IC50 [17]?
Answer: 22.9 µM

Question: And the IC50 [18]?
Answer: 79.5 µM

Question: And the IC50 [19]?
Answer: 53.4 µM

Question: What about the IC50 [20] of the same molecule?
Answer: > 100 µM

Question: What about the IC50 [21] of the same molecule?
Answer: 59.2 µM

Question: And the IC50 [22]?
Answer: > 100 µM

Question: What about the IC50 [23] of the same molecule?
Answer: > 100 µM

Question: What about the IC50 [24] of the same molecule?
Answer: > 100 µM

Question: And the IC50 [25]?
Answer: 41.9 µM

Question: And the IC50 [26]?
Answer: 55.6 µM

Question: And the IC50 [27]?
Answer: > 100 µM

Question: What about the “response of liver cancer cells” value [28] of the same molecule?
Answer: did not respond
